{"source": "PubChem BioAssay (NCI)", "experiment_in_all_cases": "NCI anticancer screen, dose series, 48 h", "key": {"DLD-1 colon": {"system": "DLD-1 colon"}, "DMS 114 small cell lung": {"system": "DMS 114 small cell lung"}, "DMS 273 small cell lung": {"system": "DMS 273 small cell lung"}, "LXFL 529 NSCLC": {"system": "LXFL 529 NSCLC"}, "M19-MEL melanoma": {"system": "M19-MEL melanoma"}, "SNB-78 CNS": {"system": "SNB-78 CNS"}, "XF 498 CNS": {"system": "XF 498 CNS"}, "RXF-631 renal": {"system": "RXF-631 renal"}}, "note": "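Protocol summary: plate cells (96-well), add compound at 5 concentrations, incubate 48 h, interpolate endpoints linearly. TGI is the concentration that stops growth completely.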"}
{"smiles": "CCC1(OC(=O)CN2CCN(CCO)CC2)C(=O)OCc2c1cc1n(c2=O)Cc2cc3ccccc3nc2-1", "note": "(stereo not drawn)", "values": [{"measurement": "TGI", "setting": "DLD-1 colon", "result": "> 100", "unit": "µM"}, {"measurement": "TGI", "setting": "DMS 114 small cell lung", "result": 16.8, "unit": "µM"}, {"measurement": "TGI", "setting": "DMS 273 small cell lung", "result": 0.367, "unit": "µM"}, {"measurement": "TGI", "setting": "LXFL 529 NSCLC", "result": 21.4, "unit": "µM"}, {"measurement": "TGI", "setting": "M19-MEL melanoma", "result": 6.99, "unit": "µM"}, {"measurement": "TGI", "setting": "SNB-78 CNS", "result": "> 100", "unit": "µM"}, {"measurement": "TGI", "setting": "XF 498 CNS", "result": 14.2, "unit": "µM"}]}
{"smiles": "CCOc1ccc(N2C(=O)C3c4[nH]c5ccccc5c4C4CCC(C(C)(C)C)CC4C3C2=O)cc1", "note": "(stereo not drawn)", "values": [{"measurement": "TGI", "setting": "DLD-1 colon", "result": "> 100", "unit": "µM"}, {"measurement": "TGI", "setting": "DMS 114 small cell lung", "result": "> 100", "unit": "µM"}, {"measurement": "TGI", "setting": "DMS 273 small cell lung", "result": "> 100", "unit": "µM"}, {"measurement": "TGI", "setting": "LXFL 529 NSCLC", "result": "> 100", "unit": "µM"}, {"measurement": "TGI", "setting": "SNB-78 CNS", "result": "> 100", "unit": "µM"}, {"measurement": "TGI", "setting": "XF 498 CNS", "result": "> 100", "unit": "µM"}]}
{"smiles": "CCOC(=O)c1ncoc1[C@H]1COC(C)(C)O1", "values": [{"measurement": "TGI", "setting": "DLD-1 colon", "result": "> 100", "unit": "µM"}, {"measurement": "TGI", "setting": "DMS 114 small cell lung", "result": "> 100", "unit": "µM"}, {"measurement": "TGI", "setting": "DMS 273 small cell lung", "result": "> 100", "unit": "µM"}, {"measurement": "TGI", "setting": "LXFL 529 NSCLC", "result": "> 100", "unit": "µM"}, {"measurement": "TGI", "setting": "M19-MEL melanoma", "result": "> 100", "unit": "µM"}, {"measurement": "TGI", "setting": "RXF-631 renal", "result": "> 100", "unit": "µM"}, {"measurement": "TGI", "setting": "SNB-78 CNS", "result": "> 100", "unit": "µM"}]}
{"smiles": "O=C1C=C(N2CCCC2)C=C(N2CCCC2)C1", "values": [{"measurement": "TGI", "setting": "DLD-1 colon", "result": "> 100", "unit": "µM"}, {"measurement": "TGI", "setting": "DMS 114 small cell lung", "result": "> 100", "unit": "µM"}, {"measurement": "TGI", "setting": "DMS 273 small cell lung", "result": "> 100", "unit": "µM"}, {"measurement": "TGI", "setting": "LXFL 529 NSCLC", "result": "> 100", "unit": "µM"}, {"measurement": "TGI", "setting": "M19-MEL melanoma", "result": 91.2, "unit": "µM"}, {"measurement": "TGI", "setting": "SNB-78 CNS", "result": "> 100", "unit": "µM"}, {"measurement": "TGI", "setting": "XF 498 CNS", "result": "> 100", "unit": "µM"}]}
{"smiles": "CCN(CC)CCNC(=O)c1ccc([N+](=O)[O-])cc1OC", "values": [{"measurement": "TGI", "setting": "DLD-1 colon", "result": "> 100", "unit": "µM"}, {"measurement": "TGI", "setting": "DMS 114 small cell lung", "result": "> 100", "unit": "µM"}, {"measurement": "TGI", "setting": "DMS 273 small cell lung", "result": "> 100", "unit": "µM"}, {"measurement": "TGI", "setting": "LXFL 529 NSCLC", "result": "> 100", "unit": "µM"}, {"measurement": "TGI", "setting": "M19-MEL melanoma", "result": "> 100", "unit": "µM"}, {"measurement": "TGI", "setting": "SNB-78 CNS", "result": "> 100", "unit": "µM"}]}
{"smiles": "O=C1Nc2cccc3ncn(c23)C2=C1CCCC2", "values": [{"measurement": "TGI", "setting": "DLD-1 colon", "result": "> 100", "unit": "µM"}, {"measurement": "TGI", "setting": "DMS 114 small cell lung", "result": "> 100", "unit": "µM"}, {"measurement": "TGI", "setting": "DMS 273 small cell lung", "result": "> 100", "unit": "µM"}, {"measurement": "TGI", "setting": "LXFL 529 NSCLC", "result": "> 100", "unit": "µM"}, {"measurement": "TGI", "setting": "M19-MEL melanoma", "result": "> 100", "unit": "µM"}, {"measurement": "TGI", "setting": "SNB-78 CNS", "result": "> 100", "unit": "µM"}]}
{"smiles": "Cc1c(C(=O)CSc2nc3ccc([N+](=O)[O-])cc3[nH]2)c(=O)n(-c2ccccc2)n1C", "values": [{"measurement": "TGI", "setting": "DLD-1 colon", "result": "> 100", "unit": "µM"}, {"measurement": "TGI", "setting": "DMS 114 small cell lung", "result": "> 100", "unit": "µM"}, {"measurement": "TGI", "setting": "DMS 273 small cell lung", "result": "> 100", "unit": "µM"}, {"measurement": "TGI", "setting": "LXFL 529 NSCLC", "result": "> 100", "unit": "µM"}, {"measurement": "TGI", "setting": "M19-MEL melanoma", "result": "> 100", "unit": "µM"}, {"measurement": "TGI", "setting": "XF 498 CNS", "result": "> 100", "unit": "µM"}]}
{"smiles": "O=C1CC2CC=C[C@H]3c4cc5c(cc4C(=O)N1C23)OCO5", "note": "(stereo partly drawn)", "values": [{"measurement": "TGI", "setting": "DLD-1 colon", "result": "> 50", "unit": "µM"}, {"measurement": "TGI", "setting": "DMS 114 small cell lung", "result": "> 50", "unit": "µM"}, {"measurement": "TGI", "setting": "DMS 273 small cell lung", "result": "> 50", "unit": "µM"}, {"measurement": "TGI", "setting": "LXFL 529 NSCLC", "result": "> 50", "unit": "µM"}, {"measurement": "TGI", "setting": "M19-MEL melanoma", "result": "> 50", "unit": "µM"}, {"measurement": "TGI", "setting": "SNB-78 CNS", "result": "> 50", "unit": "µM"}]}
{"smiles": "O=C(O)C(CS)NCc1c2ccccc2[n+]([O-])c2ccccc12", "note": "(stereo not drawn)", "values": [{"measurement": "TGI", "setting": "DLD-1 colon", "result": "> 100", "unit": "µM"}, {"measurement": "TGI", "setting": "DMS 114 small cell lung", "result": 68.6, "unit": "µM"}, {"measurement": "TGI", "setting": "DMS 273 small cell lung", "result": "> 100", "unit": "µM"}, {"measurement": "TGI", "setting": "LXFL 529 NSCLC", "result": 84.3, "unit": "µM"}, {"measurement": "TGI", "setting": "M19-MEL melanoma", "result": "> 100", "unit": "µM"}, {"measurement": "TGI", "setting": "RXF-631 renal", "result": "> 100", "unit": "µM"}, {"measurement": "TGI", "setting": "SNB-78 CNS", "result": "> 100", "unit": "µM"}]}
